Measured values as given in patent US10214519B2, “Phosphatidylinositol 3-kinase inhibitors” (Gilead Sciences, Inc., priority 2016, dated 2019).

Molecular target: PI3Kβ (Homo sapiens (Human), UniProt P42338)
Assay: PI3K isoform TR-FRET enzymatic assay (PI3Kβ)
Format: biochemical
Conditions: 2× Km ATP, 30 minutes at 25° C.
In short: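 Heterodimeric recombinant PI3Kβ was incubated with compound 30 minutes at 25° C. Product was detected by TR-FRET competition with 10 nM labeled PIP3 for 35 nM Eu-GRP-1 PH domain after EDTA stop. Data were normalized to 1 μM wortmannin and DMSO, and IC50 was taken from a four-parameter fit.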

PI3Kβ, sequence (P42338 whole entry, canonical isoform): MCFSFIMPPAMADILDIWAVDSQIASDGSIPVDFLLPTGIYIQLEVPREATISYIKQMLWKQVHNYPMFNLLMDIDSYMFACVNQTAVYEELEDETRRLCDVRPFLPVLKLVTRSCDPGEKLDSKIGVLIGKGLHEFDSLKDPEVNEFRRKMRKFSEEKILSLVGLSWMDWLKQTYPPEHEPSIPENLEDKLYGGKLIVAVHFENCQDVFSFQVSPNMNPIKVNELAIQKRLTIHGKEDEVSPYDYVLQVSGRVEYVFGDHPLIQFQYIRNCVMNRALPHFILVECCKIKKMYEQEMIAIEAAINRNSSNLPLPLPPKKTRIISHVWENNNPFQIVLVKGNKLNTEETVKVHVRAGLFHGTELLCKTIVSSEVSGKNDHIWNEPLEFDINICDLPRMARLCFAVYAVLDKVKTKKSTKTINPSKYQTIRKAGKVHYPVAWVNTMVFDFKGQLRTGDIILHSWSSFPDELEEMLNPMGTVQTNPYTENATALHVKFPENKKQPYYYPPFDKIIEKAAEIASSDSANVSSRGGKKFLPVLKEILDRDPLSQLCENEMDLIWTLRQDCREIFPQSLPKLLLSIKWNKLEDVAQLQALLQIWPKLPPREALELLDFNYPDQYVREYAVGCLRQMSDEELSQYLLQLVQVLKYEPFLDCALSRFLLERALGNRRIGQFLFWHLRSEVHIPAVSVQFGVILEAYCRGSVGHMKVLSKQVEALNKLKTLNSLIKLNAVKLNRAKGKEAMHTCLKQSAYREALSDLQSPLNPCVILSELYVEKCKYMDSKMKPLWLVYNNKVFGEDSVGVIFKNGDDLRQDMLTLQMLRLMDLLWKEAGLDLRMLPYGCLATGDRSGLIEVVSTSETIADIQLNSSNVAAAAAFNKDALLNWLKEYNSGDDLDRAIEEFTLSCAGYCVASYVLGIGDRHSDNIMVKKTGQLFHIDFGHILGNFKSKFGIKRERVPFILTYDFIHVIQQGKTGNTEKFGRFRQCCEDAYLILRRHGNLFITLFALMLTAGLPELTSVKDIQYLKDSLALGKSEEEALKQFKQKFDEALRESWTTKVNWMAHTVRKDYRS
PI3Kβ, sequence (P27986 whole entry partner, canonical isoform): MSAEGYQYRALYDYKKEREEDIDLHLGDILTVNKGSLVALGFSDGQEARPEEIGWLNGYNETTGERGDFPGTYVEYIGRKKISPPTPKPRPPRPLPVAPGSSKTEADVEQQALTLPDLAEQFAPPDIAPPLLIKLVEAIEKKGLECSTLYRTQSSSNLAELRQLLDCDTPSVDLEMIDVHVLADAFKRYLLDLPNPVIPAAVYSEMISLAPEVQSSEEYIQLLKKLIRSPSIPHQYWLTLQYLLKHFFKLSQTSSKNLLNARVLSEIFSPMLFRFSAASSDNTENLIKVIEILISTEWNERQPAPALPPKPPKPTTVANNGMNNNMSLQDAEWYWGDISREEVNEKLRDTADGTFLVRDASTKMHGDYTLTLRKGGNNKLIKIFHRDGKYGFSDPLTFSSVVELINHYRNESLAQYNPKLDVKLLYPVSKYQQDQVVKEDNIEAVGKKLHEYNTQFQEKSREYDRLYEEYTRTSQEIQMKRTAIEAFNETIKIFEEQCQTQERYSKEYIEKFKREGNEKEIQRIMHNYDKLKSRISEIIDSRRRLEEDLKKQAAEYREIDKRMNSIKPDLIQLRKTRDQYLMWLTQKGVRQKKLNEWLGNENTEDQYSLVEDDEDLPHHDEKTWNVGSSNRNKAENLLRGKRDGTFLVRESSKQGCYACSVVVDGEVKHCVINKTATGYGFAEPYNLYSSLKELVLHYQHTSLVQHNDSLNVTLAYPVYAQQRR

Row | IC50 | Structure (SMILES)
1 | 24 nM | c1ccc2c(-n3cnc4c(-c5nnc[nH]5)cc(N5CCOCC5)cc43)cc(-c3cn[nH]c3)nc2c1 [Example 381, 4-(1-(2-(1H-pyrazol-4-yl)quinolin-4-yl)-4-(4H-1,2,4-triazol-3-yl)-1H-benzo[d]imidazol-6-yl)morpholine]
2 | 130 nM | Cc1nnc(-c2cc(N3CCOCC3)cc3c2ncn3-c2cc(-c3cc[nH]n3)nc3ccccc23)[nH]1 [Example 382, 4-(1-(2-(1H-pyrazol-3-yl)quinolin-4-yl)-4-(5-methyl-4H-1,2,4-triazol-3-yl)-1H-benzo[d]imidazol-6-yl)morpholine]
3 | 11 nM | c1ccc2c(-n3cnc4c(-c5nnc[nH]5)cc(N5CCOCC5)cc43)cc(-c3cc[nH]n3)nc2c1 [Example 383, 4-(1-(2-(1H-pyrazol-3-yl)quinolin-4-yl)-4-(4H-1,2,4-triazol-3-yl)-1H-benzo[d]imidazol-6-yl)morpholine]
4 | 13 nM | CCc1nc2c(-c3ncc[nH]3)cc(N3CCOCC3)cc2n1-c1ccnc2c(F)ccc(F)c12 [Example 387, 4-(1-(5,8-difluoroquinolin-4-yl)-2-ethyl-4-(1H-imidazol-2-yl)-1H-benzo[d]imidazol-6-yl)morpholine]
5 | 1100 nM | CCCc1nc2c(-c3cn[nH]c3)cc(N3CCOCC3)cc2n1-c1ccnc2c(F)ccc(F)c12 [Example 388, 4-(1-(5,8-difluoroquinolin-4-yl)-2-propyl-4-(1H-pyrazol-4-yl)-1H-benzo[d]imidazol-6-yl)morpholine]
6 | 16 nM | CCCc1nc2c(-c3ccn[nH]3)cc(N3CCOCC3)cc2n1-c1ccnc2c(F)ccc(F)c12 [Example 389]
7 | 840 nM | Fc1ccc(F)c2c(-n3cnc4c(-c5cnc(C(F)(F)F)[nH]5)cc(N5CCOCC5)cc43)ccnc12 [Example 390, 4-(1-(5,8-difluoroquinolin-4-yl)-4-(2-(trifluoromethyl)-1H-imidazol-5-yl)-1H-benzo[d]imidazol-6-yl)morpholine]
8 | 10 nM | CCc1nc2c(-c3nnc[nH]3)cc(N3CCOCC3)cc2n1-c1c(-c2nnc[nH]2)cnc2ccccc12 [Example 391, 4-(1-(3-(4H-1,2,4-triazol-3-yl)quinolin-4-yl)-2-ethyl-4-(4H-1,2,4-triazol-3-yl)-1H-benzo[d]imidazol-6-yl)morpholine]
9 | 9 nM | Cc1nc2c(-c3nnc[nH]3)cc(N3CCOCC3)cc2n1-c1c(-c2nnc[nH]2)cnc2ccccc12 [Example 392, 4-(1-(3-(4H-1,2,4-triazol-3-yl)quinolin-4-yl)-2-methyl-4-(4H-1,2,4-triazol-3-yl)-1H-benzo[d]imidazol-6-yl)morpholine]
10 | 21 nM | Cc1nc2c(-c3nnc(N)[nH]3)cc(N3CCOCC3)cc2n1-c1ccnc2c(F)ccc(F)c12 [Example 393, 5-(1-(5,8-difluoroquinolin-4-yl)-2-methyl-6-morpholino-1H-benzo[d]imidazol-4-yl)-4H-1,2,4-triazol-3-amine]
